# In PubChem BioAssay AID1745844 (Carcinogenic Potency Database (CPDB), 2022):
# Where “and” joins values, the source holds several entries; their conditions need not be identical. Equal values may be shown once. Calls of active or inactive are those of the source. The rule behind the calls is not given here.
# System: rodent lifetime carcinogenesis bioassay, tumor incidence TD50
# Test: chronic cancer bioassays in animals – CPDB, compiled studies (AID 1745844)
# Conditions: rat
smiles,measurement,setting,value
ClCCl,carcinogen call,"strain Fischer 344, females, in drinking water, site: liver, lesion: hepatocellular carcinoma, dosed 78 weeks, study length 104 weeks",negative (inactive)
same,TD50,"strain Fischer 344, females, in drinking water, site: liver, lesion: hepatocellular carcinoma, dosed 104 weeks, study length 104 weeks",3630 mg/kg/day (inactive)
same,carcinogen call,"strain Fischer 344, females, in drinking water, site: liver, lesion: neoplastic nodule, dosed 78 weeks, study length 78 weeks",negative (inactive)
same,TD50,"strain Fischer 344, females, in drinking water, site: liver, lesion: neoplastic nodule, dosed 78 weeks, study length 104 weeks",1540 mg/kg/day (inactive)
same,TD50,"strain Fischer 344, females, in drinking water, site: liver, lesion: neoplastic nodule, dosed 104 weeks, study length 104 weeks",2340 mg/kg/day (inactive)
same,TD50,"strain Fischer 344, females, in drinking water, site: liver, lesion: several types, types named in the paper, dosed 78 weeks, study length 104 weeks",1540 mg/kg/day (inactive)
same,TD50,"strain Fischer 344, females, in drinking water, site: liver, lesion: several types, types named in the paper, dosed 104 weeks, study length 104 weeks",1430 mg/kg/day (inactive)
same,TD50,"strain Fischer 344, females, inhaled, site: all sites, lesion: mononuclear-cell leukemia, dosed 102 weeks, study length 104 weeks",1280 mg/kg/day
same,TD50,"strain Fischer 344, females, inhaled, site: any site (literature study), lesion: several types, types named in the paper, dosed 102 weeks, study length 104 weeks",501 mg/kg/day
same,TD50,"strain Fischer 344, females, inhaled, site: liver, lesion: hepatocellular adenoma + hepatocellular carcinoma + neoplastic nodule, dosed 102 weeks, study length 104 weeks",4270 mg/kg/day
same,TD50,"strain Fischer 344, females, inhaled, site: liver, lesion: hepatocellular carcinoma + neoplastic nodule, dosed 102 weeks, study length 104 weeks",4270 mg/kg/day
same,TD50,"strain Fischer 344, females, inhaled, site: mammary gland, lesion: adenocarcinoma, NOS + adenoma, NOS + fibroadenoma + mixed tumor, malignant, dosed 102 weeks, study length 104 weeks",670 mg/kg/day
same,TD50,"strain Fischer 344, females, inhaled, site: mammary gland, lesion: adenocarcinoma, NOS + adenoma, NOS + fibroadenoma, dosed 102 weeks, study length 104 weeks",630 mg/kg/day
same,TD50,"strain Fischer 344, females, inhaled, site: mammary gland, lesion: adenoma, NOS + fibroadenoma, dosed 102 weeks, study length 104 weeks",598 mg/kg/day
same,TD50,"strain Fischer 344, females, inhaled, site: mammary gland, lesion: fibroadenoma, dosed 102 weeks, study length 104 weeks",632 mg/kg/day
same,carcinogen call,"strain Fischer 344, males, in drinking water, site: liver, lesion: hepatocellular carcinoma, dosed 78 weeks, study length 104 weeks",negative (inactive)
same,carcinogen call,"strain Fischer 344, males, in drinking water, site: liver, lesion: hepatocellular carcinoma, dosed 104 weeks, study length 104 weeks",negative (inactive)
same,carcinogen call,"strain Fischer 344, males, in drinking water, site: liver, lesion: neoplastic nodule, dosed 78 weeks, study length 78 weeks",negative (inactive)
same,TD50,"strain Fischer 344, males, in drinking water, site: liver, lesion: neoplastic nodule, dosed 78 weeks, study length 104 weeks",1610 mg/kg/day (inactive)
same,carcinogen call,"strain Fischer 344, males, in drinking water, site: liver, lesion: neoplastic nodule, dosed 104 weeks, study length 104 weeks",negative (inactive)
same,TD50,"strain Fischer 344, males, in drinking water, site: liver, lesion: several types, types named in the paper, dosed 78 weeks, study length 104 weeks",3660 mg/kg/day (inactive)
same,carcinogen call,"strain Fischer 344, males, in drinking water, site: liver, lesion: several types, types named in the paper, dosed 104 weeks, study length 104 weeks",negative (inactive)
same,TD50,"strain Fischer 344, males, inhaled, site: any site (literature study), lesion: several types, types named in the paper, dosed 102 weeks, study length 104 weeks",539 mg/kg/day
same,TD50,"strain Fischer 344, males, inhaled, site: mammary gland + subcutaneous tissue, lesion: adenoma, NOS + fibroadenoma + fibroma, dosed 102 weeks, study length 104 weeks",917 mg/kg/day
same,TD50,"strain Fischer 344, males, inhaled, site: mammary gland, lesion: adenoma, NOS + fibroadenoma, dosed 102 weeks, study length 104 weeks",1640 mg/kg/day
same,TD50,"strain Fischer 344, males, inhaled, site: mammary gland, lesion: fibroadenoma, dosed 102 weeks, study length 104 weeks",1770 mg/kg/day
same,TD50,"strain Fischer 344, males, inhaled, site: multiple organs + tunica vaginalis, lesion: mesothelioma, NOS + mesothelioma, malignant, dosed 102 weeks, study length 104 weeks",1440 mg/kg/day
same,TD50,"strain Fischer 344, males, inhaled, site: subcutaneous tissue, lesion: fibroma + sarcoma, NOS, dosed 102 weeks, study length 104 weeks",1990 mg/kg/day
same,TD50,"strain Fischer 344, males, inhaled, site: subcutaneous tissue, lesion: fibroma, dosed 102 weeks, study length 104 weeks",2180 mg/kg/day
same,TD50,"strain Fischer 344, males, inhaled, site: tunica vaginalis, lesion: mesothelioma, NOS + mesothelioma, malignant, dosed 102 weeks, study length 104 weeks",1640 mg/kg/day
same,TD50,"strain Fischer 344, males, inhaled, site: tunica vaginalis, lesion: mesothelioma, malignant, dosed 102 weeks, study length 104 weeks",4310 mg/kg/day
same,TD50,"strain Sprague-Dawley Spartan, females, inhaled, site: liver, lesion: Kupffer-cell sarcoma, dosed 104 weeks, study length 104 weeks",9340 mg/kg/day (inactive)
same,carcinogen call,"strain Sprague-Dawley Spartan, females, inhaled, site: liver, lesion: hepatocellular carcinoma, dosed 52 weeks, study length 104 weeks",negative (inactive)
same,TD50,"strain Sprague-Dawley Spartan, females, inhaled, site: liver, lesion: hepatocellular carcinoma, dosed 104 weeks, study length 104 weeks",9520 mg/kg/day (inactive)
same,carcinogen call,"strain Sprague-Dawley Spartan, females, inhaled, site: liver, lesion: neoplastic nodule, dosed 52 weeks, study length 104 weeks",negative (inactive)
same,carcinogen call,"strain Sprague-Dawley Spartan, females, inhaled, site: liver, lesion: neoplastic nodule, dosed 104 weeks, study length 104 weeks",negative (inactive)
same,TD50,"strain Sprague-Dawley Spartan, females, inhaled, site: mammary gland, lesion: adenocarcinoma, dosed 52 weeks, study length 104 weeks",1140 mg/kg/day (inactive)
same,carcinogen call,"strain Sprague-Dawley Spartan, females, inhaled, site: mammary gland, lesion: adenocarcinoma, dosed 104 weeks, study length 104 weeks",negative (inactive)
same,TD50,"strain Sprague-Dawley Spartan, females, inhaled, site: mammary gland, lesion: benign tumor, dosed 52 weeks, study length 104 weeks",38.1 mg/kg/day
same,TD50,"strain Sprague-Dawley Spartan, females, inhaled, site: mammary gland, lesion: benign tumor, dosed 104 weeks, study length 104 weeks",4430 mg/kg/day and 1550 mg/kg/day
same,TD50,"strain Sprague-Dawley Spartan, females, inhaled, site: mammary gland, lesion: fibroadenoma, dosed 52 weeks, study length 104 weeks",37.7 mg/kg/day
same,TD50,"strain Sprague-Dawley Spartan, females, inhaled, site: mammary gland, lesion: fibroadenoma, dosed 104 weeks, study length 104 weeks",631 mg/kg/day
same,carcinogen call,"strain Sprague-Dawley Spartan, males, inhaled, site: liver, lesion: one or several types, types not named, dosed 86 weeks, study length 86 weeks",negative (inactive)
same,TD50,"strain Sprague-Dawley Spartan, males, inhaled, site: mammary gland, lesion: benign tumor, dosed 104 weeks, study length 104 weeks",5080 mg/kg/day
same,TD50,"strain Sprague-Dawley Spartan, males, inhaled, site: salivary gland, lesion: several types, types named in the paper, dosed 104 weeks, study length 104 weeks",4260 mg/kg/day
same,TD50,"strain Sprague-Dawley, females, by gavage, site: any site (literature study), lesion: malignant tumor, dosed 64 weeks, study length 104 weeks",1740 mg/kg/day
same,TD50,"strain Sprague-Dawley, females, by gavage, site: mammary tissue, wider than the gland, lesion: malignant tumor, dosed 64 weeks, study length 104 weeks",1130 mg/kg/day
same,TD50,"strain Sprague-Dawley, females, by gavage, site: mammary tissue, wider than the gland, lesion: several types, types named in the paper, dosed 64 weeks, study length 104 weeks",1030 mg/kg/day
same,TD50,"strain Sprague-Dawley, females, inhaled, site: any site (literature study), lesion: malignant tumor, dosed 104 weeks, study length 104 weeks",477 mg/kg/day
same,TD50,"strain Sprague-Dawley, females, inhaled, site: any site (literature study), lesion: several types, types named in the paper, dosed 104 weeks, study length 104 weeks",32.1 mg/kg/day
same,TD50,"strain Sprague-Dawley, females, inhaled, site: mammary tissue, wider than the gland, lesion: several types, types named in the paper, dosed 104 weeks, study length 104 weeks",37.8 mg/kg/day
same,TD50,"strain Sprague-Dawley, males, by gavage, site: any site (literature study), lesion: malignant tumor, dosed 64 weeks, study length 104 weeks",935 mg/kg/day
